Square brackets hold non-standard residues; d marks the D form. Ends that are not written are not given here. pS = N[C@@H](COP(=O)(O)O)C(=O)O
Key:
CD8^+ T cells (PBMCs) = assay: Intracellular cytokine staining (ICS) of PBMCs after 7 days of stimulation with MHC-I-pP (healthy donors, HH patients); format: cell-based, human; conditions: for Reactive CD8^+ T cell population, HH2: HH patient HH2; for Reactive CD8^+ T cell population, HH3: HH patient HH3; for Reactive CD8^+ T cell population, HH6: HH patient HH6; for Reactive CD8^+ T cell population, HH8: HH patient HH8; for Reactive CD8^+ T cell population, HH11: HH patient HH11; for Reactive CD8^+ T cell population, HD1: Healthy donor HD1; for Reactive CD8^+ T cell population, HD4: Healthy donor HD4; for Reactive CD8^+ T cell population, HD5: Healthy donor HD5
Procedure: From this, CD8^+ T cell responses against newly identified MHC class I-associated phosphopeptides in healthy individuals and patients with chronic liver disease were investigated. Twenty-one of the newly identified HCC-associated HLA-A*0201-restricted phosphopeptides were selected (see Table 17) for further immunological testing in HLA-A*0201 positive patients. MHC-I-pP-specific cytotoxic CD8^+ T cell responses (ppCTL) were assessed using intracellular cytokine staining (ICS) and several cytokines and surface markers were assessed in parallel. After 7 days of stimulation with the respective MHC-I-pP and no other cytokines, CD3- and CD8-expressing T cells were stained for at least two different cytokines (IFN-γ, TNF-α) and when required CD107a expression as a marker for their cytotoxic potential.
First, peripheral blood mononuclear cells (PBMCs) from healthy donors and patients with hereditary hemochromatosis (HH) were analyzed. HH is a chronic liver disease characterized by excessive intestinal absorption of dietary iron resulting in a pathological deposition of iron in the liver. PBMCs or lymphocytes from liver tissue were extracted and specifically stimulated with (phospho-) peptides for 7 days before intracellular cytokine staining (ICS). Doublets and dead cells, using a fixable viability dye, were excluded. Lymphocytes were gated on CD3^+ and CD8^+ double positive cells and were analysed for expression of IFNγ, TNFα-, and CD107a.

[1] = test system: expanded TIL / IHL cultures; assay: ICS for MHC-I-pP reactivity of liver-derived lymphocyte cultures after unspecific rapid expansion protocol (REP); format: cell-based, human
[2] = test system: unexpanded lymphocyte cultures (CD8^+ T cells); assay: ICS for MHC-I-pP reactivity of lymphocyte cultures without expansion (Table 23, No Expansion); conditions: HH6
[3] = test system: expanded lymphocyte cultures from deceased donor livers, cirrhotic livers and HCC; assay: ICS for MHC-I-pP reactivity of liver-derived lymphocyte cultures after phosphopeptide-specific expansion; format: cell-based, human; conditions: for ppCTL response, Deceased Donor Liver Do 2 / ppCTL response, Deceased Donor Liver Do 3 / ppCTL response, Deceased Donor Liver Do 4 / ppCTL response, Deceased Donor Liver Do 6 / ppCTL response, End-stage Liver Cirrhosis IHL 11 / ppCTL response, End-stage Liver Cirrhosis IHL 12 / ppCTL response, End-stage Liver Cirrhosis IHL 13 / ppCTL response, End-stage Liver Cirrhosis IHL 15 / ppCTL response, HCC Distal HCC 1 / ppCTL response, HCC Tumor HCC 1 / ppCTL response, HCC Distal HCC 4 / ppCTL response, HCC Distal HCC 9 / ppCTL response, HCC Tumor HCC 9 / ppCTL response, HCC Distal HCC 12: pP-specifically expanded culture; for ppCTL response, HCC Distal HCC 1: HCC 1 Distal; for ppCTL response, HCC Tumor HCC 1: HCC 1 Tumor; for ppCTL response, HCC Distal HCC 4: HCC 4 Distal; for ppCTL response, HCC Distal HCC 9: HCC 9 Distal; for ppCTL response, HCC Tumor HCC 9: HCC 9 Tumor; for ppCTL response, HCC Distal HCC 12: HCC 12 Distal

Row | Substance | Reactive CD8^+ T cell population, HH2 (CD8^+ T cells (PBMCs)) | Reactive CD8^+ T cell population, HH3 (CD8^+ T cells (PBMCs)) | Reactive CD8^+ T cell population, HH6 (CD8^+ T cells (PBMCs)) | Reactive CD8^+ T cell population, HH8 (CD8^+ T cells (PBMCs)) | Reactive CD8^+ T cell population, HD1 (CD8^+ T cells (PBMCs)) | Reactive CD8^+ T cell population, HD4 (CD8^+ T cells (PBMCs)) | Reactive CD8^+ T cell population, HD5 (CD8^+ T cells (PBMCs)) | Reactive CD8^+ T cells, Non-specific Expansion, Do2 [1] | Reactive CD8^+ T cells, Non-specific Expansion, Do4 [1] | Reactive CD8^+ T cells, Non-specific Expansion, HH6 [1] | Reactive CD8^+ T cells, No Expansion, HH6 [2] | Reactive CD8^+ T cells, pP-specific Expansion, Do2 [3] | Reactive CD8^+ T cells, pP-specific Expansion, Do4 [3] | Reactive CD8^+ T cells, pP-specific Expansion, HH6 [3] | ppCTL response, Deceased Donor Liver Do 2 [3] | ppCTL response, Deceased Donor Liver Do 3 [3] | ppCTL response, Deceased Donor Liver Do 4 [3] | ppCTL response, Deceased Donor Liver Do 6 [3] | ppCTL response, End-stage Liver Cirrhosis IHL 11 [3] | ppCTL response, End-stage Liver Cirrhosis IHL 12 [3] | other results
1 | ALDsGASLLHL: RIPK4 phosphopeptide, HLA-A*0201 (ALD[pS]GASLLHL; listed as Homo sapiens) | 0 (<0.25% reactive CD8^-+ T cells) | 0 (<0.25% reactive CD8^-+ T cells) | 0 (<0.25% reactive CD8^-+ T cells) | 0 (<0.25% reactive CD8^-+ T cells) | 0 (<0.25% reactive CD8^-+ T cells) | 0 (<0.25% reactive CD8^-+ T cells) | 0 (<0.25% reactive CD8^-+ T cells) | 0 (<0.25% reactive CD8^-+ T cells) | 0 (<0.25% reactive CD8^-+ T cells) | 0 (<0.25% reactive CD8^-+ T cells) | 2 (2.5-5.0% reactive CD8^-+ T cells) | 0 (<0.25% reactive CD8^-+ T cells) | 0 (<0.25% reactive CD8^-+ T cells) | 2 (2.5-5.0% reactive CD8^-+ T cells) | 0 (<0.25% reactive CD8-+ T cells) | 0 (<0.25% reactive CD8-+ T cells) | 0 (<0.25% reactive CD8-+ T cells) | 0 (<0.25% reactive CD8-+ T cells) | 0 (<0.25% reactive CD8-+ T cells) | 0 (<0.25% reactive CD8-+ T cells) | Reactive CD8^+ T cell population, HH11 (CD8^+ T cells (PBMCs)): 1 (0.25-2.5% reactive CD8^-+ T cells); ppCTL response, End-stage Liver Cirrhosis IHL 13 [3]: 0 (<0.25% reactive CD8-+ T cells); ppCTL response, End-stage Liver Cirrhosis IHL 15 [3]: 3 (5-7.5% reactive CD8-+ T cells); ppCTL response, HCC Distal HCC 1 [3]: 0 (<0.25% reactive CD8-+ T cells); ppCTL response, HCC Tumor HCC 1 [3]: 0 (<0.25% reactive CD8-+ T cells); ppCTL response, HCC Distal HCC 4 [3]: 0 (<0.25% reactive CD8-+ T cells); ppCTL response, HCC Distal HCC 9 [3]: 0 (<0.25% reactive CD8-+ T cells); ppCTL response, HCC Tumor HCC 9 [3]: 0 (<0.25% reactive CD8-+ T cells); ppCTL response, HCC Distal HCC 12 [3]: 0 (<0.25% reactive CD8-+ T cells)
2 | KAFsPVRSV: ID2 phosphopeptide, HLA-A*0201 (KAF[pS]PVRSV; listed as Homo sapiens) | 0 (<0.25% reactive CD8^-+ T cells) | 0 (<0.25% reactive CD8^-+ T cells) | 0 (<0.25% reactive CD8^-+ T cells) | 0 (<0.25% reactive CD8^-+ T cells) | 0 (<0.25% reactive CD8^-+ T cells) | 0 (<0.25% reactive CD8^-+ T cells) | 0 (<0.25% reactive CD8^-+ T cells) | 0 (<0.25% reactive CD8^-+ T cells) | 0 (<0.25% reactive CD8^-+ T cells) | 0 (<0.25% reactive CD8^-+ T cells) | 0 (<0.25% reactive CD8^-+ T cells) | 0 (<0.25% reactive CD8^-+ T cells) | 0 (<0.25% reactive CD8^-+ T cells) | 0 (<0.25% reactive CD8^-+ T cells) | 1 (0.25-2.5% reactive CD8-+ T cells) | 0 (<0.25% reactive CD8-+ T cells) | 0 (<0.25% reactive CD8-+ T cells) | 0 (<0.25% reactive CD8-+ T cells) | 0 (<0.25% reactive CD8-+ T cells) | 0 (<0.25% reactive CD8-+ T cells) | Reactive CD8^+ T cell population, HH11 (CD8^+ T cells (PBMCs)): 0 (<0.25% reactive CD8^-+ T cells); ppCTL response, End-stage Liver Cirrhosis IHL 13 [3]: 0 (<0.25% reactive CD8-+ T cells); ppCTL response, End-stage Liver Cirrhosis IHL 15 [3]: 0 (<0.25% reactive CD8-+ T cells); ppCTL response, HCC Distal HCC 1 [3]: 0 (<0.25% reactive CD8-+ T cells); ppCTL response, HCC Tumor HCC 1 [3]: 0 (<0.25% reactive CD8-+ T cells); ppCTL response, HCC Distal HCC 4 [3]: 0 (<0.25% reactive CD8-+ T cells); ppCTL response, HCC Distal HCC 9 [3]: 0 (<0.25% reactive CD8-+ T cells); ppCTL response, HCC Tumor HCC 9 [3]: 0 (<0.25% reactive CD8-+ T cells); ppCTL response, HCC Distal HCC 12 [3]: 0 (<0.25% reactive CD8-+ T cells)
3 | RLAsYLDRV: KRT18 phosphopeptide, HLA-A*0201 (RLA[pS]YLDRV; listed as Homo sapiens) | 3 (5-7.5% reactive CD8^-+ T cells) | 0 (<0.25% reactive CD8^-+ T cells) | 0 (<0.25% reactive CD8^-+ T cells) | 0 (<0.25% reactive CD8^-+ T cells) | 0 (<0.25% reactive CD8^-+ T cells) | 0 (<0.25% reactive CD8^-+ T cells) | 0 (<0.25% reactive CD8^-+ T cells) | 0 (<0.25% reactive CD8^-+ T cells) | 0 (<0.25% reactive CD8^-+ T cells) | 1 (0.25-2.5% reactive CD8^-+ T cells) | 0 (<0.25% reactive CD8^-+ T cells) | 0 (<0.25% reactive CD8^-+ T cells) | 0 (<0.25% reactive CD8^-+ T cells) | 0 (<0.25% reactive CD8^-+ T cells) | 0 (<0.25% reactive CD8-+ T cells) | 0 (<0.25% reactive CD8-+ T cells) | 0 (<0.25% reactive CD8-+ T cells) | 0 (<0.25% reactive CD8-+ T cells) | 0 (<0.25% reactive CD8-+ T cells) | 0 (<0.25% reactive CD8-+ T cells) | ppCTL response, End-stage Liver Cirrhosis IHL 13 [3]: 0 (<0.25% reactive CD8-+ T cells); ppCTL response, End-stage Liver Cirrhosis IHL 15 [3]: 0 (<0.25% reactive CD8-+ T cells); ppCTL response, HCC Distal HCC 1 [3]: 0 (<0.25% reactive CD8-+ T cells); ppCTL response, HCC Tumor HCC 1 [3]: 0 (<0.25% reactive CD8-+ T cells); ppCTL response, HCC Distal HCC 4 [3]: 0 (<0.25% reactive CD8-+ T cells); ppCTL response, HCC Distal HCC 9 [3]: 0 (<0.25% reactive CD8-+ T cells); ppCTL response, HCC Tumor HCC 9 [3]: 0 (<0.25% reactive CD8-+ T cells); ppCTL response, HCC Distal HCC 12 [3]: 0 (<0.25% reactive CD8-+ T cells)
